Measurements taken from patent US20230404987A1, “METHOD OF TREATING BREAST CANCER” (Eisai R&D Management Co., Ltd., priority 2020, published 2023).
Values joined by “and” are separate entries in the source; they are usually repeats but may differ in a detail not shown here. Identical values can stand only once.

Columns and labels:
[1] = tested on: locally advanced or metastatic ER+, HER2-negative breast cancer; assay: Phase 1/2 study of Compound 1 QD PO: antitumor efficacy (best overall response, CBR, PFS); assay type: in vivo, human; conditions: for Confirmed partial responses / Clinical benefit rate (≥23 weeks) / Stable disease (SD) rate: response-evaluable subjects; for mPFS: started on 450 mg; for Median PFS: full analysis set; for Progression free survival, median (95% CI): FIG. 4, Example 3; for Progression free survival, median (95%): FIG. 3, Example 3
Method: (§1) Compound 1 was tested in a first-in-human, Phase 1/2 study in women with locally advanced or metastatic ER+, HER2-negative breast cancer. In this multicenter study, women with locally advanced or metastatic ER+, HER2− breast cancer were treated with Compound 1 administered QD, PO over a 28-day cycle after progression on at least 1 hormonal therapy and at least 1 additional therapy/regimen.
(§2) The primary objective of the Phase 1 was to determine the MTD and RP2D in pretreated subjects with ER+, HER2−metastatic breast cancer. Secondary objectives included safety and antitumor activity. The primary objective of the Phase 2 was to estimate the efficacy of this agent in terms of objective response rate (ORR), clinical benefit rate (CBR), and progression-free survival (PFS). Secondary objectives included safety. The trial was designed to exclude a lower limit of ORR of 5% at one-sided level of significance of 0.05 and a power of 90%.
Over 30 months, 130 patients were enrolled; 47 in the Phase 1 part and 83 in the Phase 2 part of the trial. A total of 105 subjects, including 73 subjects on 450 mg were response-evaluable.
Experiments conducted subsequent to those reported in Example 1 were directed to identify the parameters driving the activity of Compound 1 in the trial population. Two parameters were of particular interest: 1) PgR status, and 2) ESR1 mutant type and allele frequency. PFS was used in these analyses because it is a continuous variable. […] The effect of baseline circulating ESR1, of particular ESR1 mutants and their allele frequency was unknown.
The effect of PgR positivity and the detection prior to treatment of ESR1 mutations Y537S and D538G on median PFS was then investigated using the Kaplan-Meier method. The effect of ESR1 clonality was also investigated since the presence of simultaneous clones of ESR1 mutations likely indicates very advanced or complex disease. Of note, the allele frequencies of the different ESR1 mutants were not identical, indicating the presence of multiple clones in a tumor, rather than multiple mutations in the same tumor ESR1 gene. For the purpose of these analyses, clonal Y537S was defined as ESR1 Y537S mutation detected in a pre-treatment whole blood sample at a mutant allele frequency (MAF)≥0.5% with a MAF for D538G<0.5%. Conversely, clonal D538G was defined as ESR1 D538G mutation detected in a pre-treatment whole blood sample at a MAF≥0.5% with a MAF for Y537S<0.5%.
Following data analysis described above, patients remained in the Phase 2 study reported in Example 1, and clinical data collection continued. The primary objective of this study was to estimate the efficacy of Compound 1 in terms of best overall response rate (ORR), duration of response (DoR), clinical benefit rate, and progression-free survival (PFS) in all subjects and in those with and without ERα mutation (ERαMUT).
83 patients were treated with 450 mg in the Phase 2 study of Example 1. Additionally, 11 patients who were treated with 450 mg in the Phase 1 part of the trial (also discussed in Example 1) have been grouped with these 83 Phase 2 patients for discussion in this example. […] Patients were heavily pretreated, and 85% of the patients received prior CDK4/6 inhibitors.

[2] = tested on: women with locally advanced or metastatic ER+, HER2-negative breast cancer; assay: Phase 1/2 study of Compound 1 QD PO: safety (DLT, adverse events); assay type: in vivo, human
Method: as §1, §2
The Phase 1 part evaluated once daily doses from 100 to 600 mg. […] Consequently, the dose of 450 mg was selected as the RP2D.

[3] = tested on: PDX breast cancer models, including those with mutated ESR1; conditions: multiple PDX breast cancer models; cited from earlier work
[4] = 450 mg, N = 72, response-evaluable set, Example 3
[5] = 450 mg, N = 73, response evaluable set, Example 1
[6] = 10 patients with clonal ESR1 Y537S, 450 mg, Example 3
[7] = Clonal D538G (N = 17), 450 mg, Example 3
[8] = Clonal Y537S (N = 10), 450 mg, Example 3
[9] = Clonal Y537S or Clonal D538G (N = 27), 450 mg, Example 3
[10] = Polyclonal Y537S and D538G (N = 2), 450 mg, Example 3
[11] = Y537S and D538G Negatives (N = 43), 450 mg, Example 3
[12] = all doses, N = 105, response evaluable set, Example 1

For `CN(C)C(=O)/C=C/CNCCOc1ccc(/C(=C(/CC(F)(F)F)c2ccccc2)c2ccc3[nH]nc(F)c3c2)cn1` [Compound 1], the Confirmed partial responses ([1]; 450 mg dose, 90% confidence limits 8.7%-23.7) was 15%, the “Median PFS (Kaplan-Meier)” value ([1]; 450 mg starters with clonal ESR1 Y537S or clonal D538G mutations, Example 2) was 5.5 months and the “Median time to response (min, max)” value ([1]; 450 mg, N = 72, Example 3) was 2.7 (1.6, 5.5) mo. The “Median duration of response (min, max)” value ([1]; 450 mg, N = 72, Example 3, descriptive median) was 7.5 (3.5, 16.6) mo, the “Best overall response: Complete response” value [1, 4] was 0 n (%) and the “Best overall response: Confirmed partial response” value [1, 4] was 12 (17) n (%). The “Best overall response: Not evaluable” value [1, 4] was 2 (3) n (%), the “Best overall response: Progressive disease” value [1, 4] was 27 (38) n (%) and the “Best overall response: Stable disease” value [1, 4] was 31 (43) n (%). The “Clinical benefit rate (CR + PR + SD ≥ 23 weeks)” value [1, 4] was 29 (40) n (%), the “ORR (95% confidence interval)” value [1, 4] was 17 (9, 27) % and the “Best overall response: Complete response (CR)” value [1, 5] was 0 N (%). The “Best overall response: Confirmed partial response (PR)” value [1, 5] was 11 (15) N (%), the “Best overall response: Not evaluable” value [1, 5] was 3 (4) N (%) and the “Best overall response: Progressive disease (PD)” value [1, 5] was 26 (36) N (%). The “Clinical benefit rate (CR + PR + SD lasting for ≥23 weeks)” value [1, 5] was 24 (33) N (%), the “Clinical benefit rate (≥23 weeks)” value ([1]; 450 mg) was 33% and the “Stable disease (SD) rate” value ([1]; 450 mg) was 45%. For the same molecule, the Partial responses [1, 6] was 30%, the Stable disease [1, 6] was 40% and the mPFS ([1]; All subjects, PgR negative, N=34) was 2.1 months. The mPFS ([1]; All subjects, PgR positive, N=38) was 5.5 months, the Clinical benefit rate [1, 7] was 6 (35) n (%) and the Complete response [1, 7] was 0 n (%). The Confirmed partial response [1, 7] was 0 n (%), the Not evaluable [1, 7] was 0 n (%) and the Progressive disease [1, 7] was 7 (41) n (%). For the same molecule, the Stable disease [1, 7] was 10 (59) n (%), the “Median PFS” value ([1]; Clonal D538G, 450 mg, Example 3) was 5.4 mo and the “Progression free survival, median (95% CI)” value ([1]; Clonal D538G, N=19, 13 events) was 5.4 (1.7, 7.2) months. The mPFS ([1]; Clonal D538G, PgR negative, N=3) was 1.7 months, the mPFS ([1]; Clonal D538G, PgR positive (≥1%), N=10) was 4.5 months and the Clinical benefit rate [1, 8] was 6 (60) n (%). For the same molecule, the Complete response [1, 8] was 0 n (%), the Confirmed partial response [1, 8] was 3 (30) n (%) and the Not evaluable [1, 8] was 0 n (%). For the same molecule, the Progressive disease [1, 8] was 3 (30) n (%), the Stable disease [1, 8] was 4 (40) n (%) and the mPFS ([1]; Clonal Y537S + Clonal D538G (combined data), PgR negative, N=3) was 1.7 months. For the same molecule, the mPFS ([1]; Clonal Y537S + Clonal D538G (combined data), PgR positive, N=16) was 7.2 months, the Clinical benefit rate [1, 9] was 12 (44) n (%) and the Complete response [1, 9] was 0 n (%). The Confirmed partial response [1, 9] was 3 (11) n (%), the Not evaluable [1, 9] was 0 n (%) and the Progressive disease [1, 9] was 10 (37) n (%). For the same molecule, the Stable disease [1, 9] was 14 (52) n (%), the “Median PFS” value ([1]; Clonal Y537S or Clonal D538G, 450 mg, Example 3) was 5.4 mo and the “Median PFS” value ([1]; Clonal Y537S, 450 mg, Example 3) was 7.3 mo. The “Progression free survival, median (95% CI)” value ([1]; Clonal Y537S, N=10, 8 events) was 7.3 (0.8, 11.2) months and 7.3 months, the mPFS ([1]; Clonal Y537S, PgR positive (≥1%), N=6) was 13.0 months and the “Progression free survival, median (95%)” value ([1]; PgR Negative (≤1% positive cells), N=34, 20 events) was 2.1 (1.7, 7.4) months. For the same molecule, the “Progression free survival, median (95%)” value ([1]; PgR Positive (≥1% positive cells), N=38, 24 events) was 5.4 (2.0, 8.8) months, the Clinical benefit rate [1, 10] was 1 (50) n (%) and the Complete response [1, 10] was 0 n (%). For the same molecule, the Confirmed partial response [1, 10] was 0 n (%), the Not evaluable [1, 10] was 0 n (%) and the Progressive disease [1, 10] was 1 (50) n (%). For the same molecule, the Stable disease [1, 10] was 1 (50) n (%), the “Median PFS” value ([1]; Polyclonal Y537S and D538G, 450 mg, Example 3) was 3.5 mo and the “Progression free survival, median (95% CI)” value ([1]; Polyclonal Y537S and D538G, N=4, 3 events) was 3.5 (1.7, 5.4) months. The mPFS ([1]; Polyclonal, PgR positive, N=3) was 2.6 months, the Clinical benefit rate [1, 11] was 16 (37) n (%) and the Complete response [1, 11] was 0 n (%). The Confirmed partial response [1, 11] was 9 (21) n (%), the Not evaluable [1, 11] was 2 (5) n (%) and the Progressive disease [1, 11] was 16 (37) n (%). For the same molecule, the Stable disease [1, 11] was 16 (37) n (%), the “Median PFS” value ([1]; Y537S and D538G Negatives, 450 mg, Example 3) was 3.8 mo and the “Progression free survival, median (95% CI)” value ([1]; Y537S and D538G negatives, N=61, 33 events) was 3.8 (2.0, 7.3) months. The mPFS ([1]; Y537S/D538G absent, PgR negative, N=31) was 2.1 months, the mPFS ([1]; Y537S/D538G absent, PgR positive, N=19) was 3.8 months and the “Median progression free survival” value ([1]; all 94 patients treated with 450 mg, Example 3) was 5.1 months. For the same molecule, the “Best overall response: Complete response (CR)” value [1, 12] was 0 N (%), the “Best overall response: Confirmed partial response (PR)” value [1, 12] was 13 (12) N (%) and the “Best overall response: Not evaluable” value [1, 12] was 7 (7) N (%). The “Best overall response: Progressive disease (PD)” value [1, 12] was 37 (35) N (%), the “Clinical benefit rate (CR + PR + SD lasting for ≥23 weeks)” value [1, 12] was 36 (34) N (%) and the “Clinical benefit rate (≥23 weeks)” value ([1]; all doses) was 34%. The “Stable disease (SD) rate” value ([1]; all doses) was 46%, the Confirmed partial responses ([1]; all doses, 90% confidence limits 7.5%-19%) was 12% and the “Anti-tumor activity (conclusion)” value ([1]; monotherapy, once daily 450 mg, heavily pretreated ER+, HER2−, metastatic breast cancer patients) was “demonstrated anti-tumor activity”. The “Median PFS (Kaplan-Meier)” value ([1]; subjects who started at the 450 mg dose, 95% CI 3.2-6.2, Examples 1 and 2) was 3.8 months, the “Dose-limiting toxicities (DLTs) observed” value ([2]; 600 mg cohort, in 2 of 7 subjects (Grade 3 fatigue and Grade 3 drug eruption)) was 2 DLTs and the “Dose-limiting toxicities (DLTs)” value ([2]; Phase 1, once daily doses up to 450 mg) was “No dose-limiting toxicities”. The “Grade 1 sinus bradycardia (asymptomatic)” value ([2]; in vivo) was 35%, the “Grade 2 QTcF prolongation” value ([2]; in vivo) was 2 subjects and the “Grade 2 sinus bradycardia (symptomatic, no intervention needed)” value ([2]; in vivo) was 4%. The “Grade 3 QTcF prolongation” value ([2]; in vivo) was 3 subjects, the Treatment-related deaths ([2]; in vivo) was “no treatment-related deaths” and the “RP2D (recommended phase 2 dose)” value ([2]; once daily, PO) was 450 mg. For the same molecule, the “Grade 4 AE” value ([2]; serum bilirubin, urinary tract obstruction, hyponatremia, all considered related to disease progression) was “Three”, the “Grade 2 or higher adverse event: AST increase” value ([2]; subjects, all doses) was 11% and the “Grade 2 or higher adverse event: anemia” value ([2]; subjects, all doses) was 20%. For the same molecule, the “Grade 2 or higher adverse event: diarrhea” value ([2]; subjects, all doses) was 11%, the “Grade 2 or higher adverse event: fatigue” value ([2]; subjects, all doses) was 16% and the “Grade 2 or higher adverse event: nausea” value ([2]; subjects, all doses) was 14%. For the same molecule, the Antitumor activity [3] was “significant antitumor activity”.
